# According to patent publication US20230414826A1, “FIBRIN HYDROGELS” (Mayo Foundation for Medical Education and Research, priority 2020, published 2023):
# Target: T1, fibrinogen (Evicel) (Homo sapiens, UniProt P02671+P02675+P02679)
# T1 construct: purchased Ethicon (Evicel Biologically Active Component 2)
# T1 sequence (P02671 20-629 limits assumed): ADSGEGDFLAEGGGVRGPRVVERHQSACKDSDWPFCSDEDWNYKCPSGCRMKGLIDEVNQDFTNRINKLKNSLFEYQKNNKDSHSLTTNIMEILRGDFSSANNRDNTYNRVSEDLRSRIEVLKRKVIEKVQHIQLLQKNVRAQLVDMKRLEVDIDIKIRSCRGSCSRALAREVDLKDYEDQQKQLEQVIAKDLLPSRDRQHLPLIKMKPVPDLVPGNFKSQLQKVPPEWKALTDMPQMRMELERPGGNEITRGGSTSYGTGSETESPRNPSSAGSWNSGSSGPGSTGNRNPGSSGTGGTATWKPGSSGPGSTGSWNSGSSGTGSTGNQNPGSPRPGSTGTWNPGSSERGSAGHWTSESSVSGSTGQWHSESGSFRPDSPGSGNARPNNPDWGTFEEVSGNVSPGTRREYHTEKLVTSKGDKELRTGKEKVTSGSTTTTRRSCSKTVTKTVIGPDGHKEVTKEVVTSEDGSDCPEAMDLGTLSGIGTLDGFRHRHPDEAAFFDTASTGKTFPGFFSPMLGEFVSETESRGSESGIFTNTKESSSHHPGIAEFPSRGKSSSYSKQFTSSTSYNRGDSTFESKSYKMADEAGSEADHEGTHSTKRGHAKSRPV
# T1 sequence (P02675 31-491): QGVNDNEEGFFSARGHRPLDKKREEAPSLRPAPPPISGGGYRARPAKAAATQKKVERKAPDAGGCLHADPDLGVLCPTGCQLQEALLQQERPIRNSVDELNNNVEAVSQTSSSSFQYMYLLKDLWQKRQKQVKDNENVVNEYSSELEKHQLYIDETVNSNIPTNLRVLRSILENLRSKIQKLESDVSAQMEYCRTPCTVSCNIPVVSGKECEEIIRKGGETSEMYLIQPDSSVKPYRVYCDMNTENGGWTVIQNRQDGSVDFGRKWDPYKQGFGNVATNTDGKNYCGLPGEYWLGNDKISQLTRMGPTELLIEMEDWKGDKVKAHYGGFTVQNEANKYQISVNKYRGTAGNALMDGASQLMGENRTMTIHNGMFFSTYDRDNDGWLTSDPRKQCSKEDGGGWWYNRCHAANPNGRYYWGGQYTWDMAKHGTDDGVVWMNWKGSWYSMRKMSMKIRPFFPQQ
# T1 sequence (P02679 27-433 limits assumed): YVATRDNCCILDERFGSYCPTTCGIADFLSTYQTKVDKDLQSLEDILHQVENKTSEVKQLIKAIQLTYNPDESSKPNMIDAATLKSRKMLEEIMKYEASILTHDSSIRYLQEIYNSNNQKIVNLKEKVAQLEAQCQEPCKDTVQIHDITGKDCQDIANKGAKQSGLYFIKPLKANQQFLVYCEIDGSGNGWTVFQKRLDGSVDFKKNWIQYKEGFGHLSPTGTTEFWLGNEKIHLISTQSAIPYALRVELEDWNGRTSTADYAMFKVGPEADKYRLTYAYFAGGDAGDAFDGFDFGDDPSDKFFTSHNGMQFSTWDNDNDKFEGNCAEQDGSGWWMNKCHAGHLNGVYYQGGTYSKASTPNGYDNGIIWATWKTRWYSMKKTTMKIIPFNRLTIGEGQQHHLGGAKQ
# Test: Fibrinogen clotting assay with coagulation analyzer (Clauss method), tissue glue fibrinogen
# Format: biochemical
# Conditions: for gelation time (average clotting time): 4.58 mM additive in PBS, fixed 1:20 dilution of fibrinogen (Evicel); for clot time: dye 0.1% w/v; for Effect on Clotting Time: screen, multiple concentrations up to 4.58 mM
# [1] = 0.01% (w/v) dye, 1:20 dilution of fibrinogen, n=10
# [2] = 0.05% (w/v) dye, 1:20 dilution of fibrinogen, n=10
# [3] = 0.10% (w/v) dye, 1:20 dilution of fibrinogen, n=10
Compound,gelation time (average clotting time) (n=10),clotting time [1],clotting time [2],clotting time [3],"clotting time (0.2-0.4% dye, out of range of detection of the coagulation analyzer)",clot time (fibrinogen 10.0 mg/mL),clot time (fibrinogen 10.9 mg/mL),clot time (fibrinogen 12.0 mg/mL),clot time (fibrinogen 13.3 mg/mL),clot time (fibrinogen 17.1 mg/mL),clot time (fibrinogen 24.0 mg/mL),Effect on Clotting Time,"clotting time (0.2% (w/v) dye, 1:20 dilution of fibrinogen, n=10)","clotting time (0.3% (w/v) dye, 1:20 dilution of fibrinogen, n=10)","clotting time (0.4% (w/v) dye, 1:20 dilution of fibrinogen, n=10)"
"Cc1cc(-c2ccc(/N=N/c3ccc4c(S(=O)(=O)O)cc(S(=O)(=O)O)c(N)c4c3O)c(C)c2)ccc1/N=N/c1ccc2c(S(=O)(=O)O)cc(S(=O)(=O)O)c(N)c2c1O [EB, Evans Blue]",> 70 s,19.4 ± 0.7 s,34.8 ± 4.7 s,43.6 ± 2.5 s,> 70 s,50.9 ± 4.9 s,39.5 ± 3.3 s,31.7 ± 1.8 s,25.7 ± 1.0 s,14.8 ± 0.4 s,8.9 ± 2.3 s,Increase,,,
"Cc1cc(-c2ccc(/N=N/c3c(S(=O)(=O)O)cc4cc(S(=O)(=O)O)cc(N)c4c3O)c(C)c2)ccc1/N=N/c1c(S(=O)(=O)O)cc2cc(S(=O)(=O)O)cc(N)c2c1O [TB, Trypan Blue]",46.3 ± 3.2 s,17.6 ± 0.3 s,18.1 ± 1.4 s,24.4 ± 2.3 s,,15.7 ± 3.1 s,16.3 ± 0.4 s,11.6 ± 3.7 s,18.1 ± 0.4 s,7.4 ± 0.1 s,5.6 ± 0.1 s,Increase,26.2 ± 4.2 s,25.2 ± 2.9 s,29.8 ± 1.2 s
